Data reported in patent US20200163984A1, “USE OF ISOVALERYL SPIRAMYCIN I, II AND/OR III IN MANUFACTURING MEDICAMENT FOR TREATING AND/OR PREVENTING TUMOR, AND MEDICAMENT” (SHENYANG FUYANG PHARMACEUTICAL TECHNOLOGY CO., LTD., priority 2017, published 2020).

What was measured:
[1] = system: transplanted tumor of human hepatoma cell HepG-2; assay: HepG-2 transplanted tumor in nude mice; settings: HepG-2 nude mice, 30 mg/kg
Method: (§1) Then cell concentration was adjusted to 1×10^7/ml with matrigel, then each nude mouse was inoculated subcutaneously with 0.2 ml of cells at its right armpit and recorded as the first day of inoculation. When the tumor grows to be greater than or equal to 100 mm^3, the mice were randomly divided into 11 groups with 6 mice in each group: a model group, a cyclophosphamide group, isovaleryl spiramycin I groups with doses of 25, 50 and 100 mg/kg, isovaleryl spiramycin II groups with doses of 25, 50 and 100 mg/kg, and isovaleryl spiramycin III groups with doses of 25, 50 and 100 mg/kg. Each group was continuously administered intragastrically for 30 days with a dose of 20 ml/kg. The mice were sacrificed the next day after drug withdrawal and the indicators were tested. The long diameter and short diameter of the tumor, and the body weight of each mouse were recorded every 3 days from drug administration to nude mouse sacrifice.
(§2) The body weight of the nude mice and the long diameter (a) and short diameter (b) of the transplanted tumor were measured every 3 days, and the tumor volume (v), relative tumor volume (RTV) and relative tumor proliferation rate (T/C) are calculated respectively according to the following formulas, wherein V=a×b^2/2; RTV=V/V0 (V0 is the tumor volume before administration, V is the tumor volume before sacrifice), and T/C (%)=treatment group RTV/model control group RTV×100%.
(§3) Each mouse was weighed and sacrificed. After the tumor was completely stripped off from the body of the mouse, the non-tumor tissues such as blood stains and fat were removed to weigh the tumor and calculate the tumor growth inhibition rate. The average tumor weight of each group of mice is used as an indicator of efficacy. Tumor growth inhibition rate (%)=(1−the average tumor weight of the treatment group/the average tumor weight of the model group)×100%.

[2] = system: transplanted tumor of human cervical cancer cell HeLa; assay: HeLa transplanted tumor in nude mice; settings: HeLa nude mice, 30 mg/kg
Method: as §1, with “HeLa cells in a logarithmic growth phase were taken and subjected to a trypan blue exclusion experiment showing that the cell viability was more than 95%, then the cells were subjected to trypsinization, centrifugation, and supernatant removal. Then” for “Then”
as §2, §3

Structure (SMILES): O=P1(N(CCCl)CCCl)NCCCO1 (stereo not shown) [Cyclophosphamide, cyclophosphamide, reference compound]
- Inhibition Rate (%) [1]: 71.04%
- Relative Tumor Proliferation Rate (T/C) [1]: 39.27%
- Relative Tumor Volume (RTV) [1]: 6.58 ± 2.18
- Tumor Weight [1]: 0.07 ± 0.38 g
- Body Weight (g) (d1) ([1]; d1): 21.89 ± 1.84 g
- Tumor Volume (mm3) (d 1) ([1]; d1): 119.66 ± 7.65 mm3
- Body Weight (g) (d30) ([1]; d30): 19.67 ± 1.49 g
- Tumor Volume (mm3) (d30) ([1]; d30): 792.56 ± 287.31 mm3
- Inhibition Rate (%) [2]: 65.74%
- Relative Tumor Proliferation Rate (T/C) [2]: 36.17%
- Relative Tumor Volume (RTV) [2]: 6.00 ± 1.35
- Tumor Weight [2]: 0.66 ± 0.13 g
- Body Weight (g) (d1) ([2]; d1): 21.10 ± 0.69 g
- Tumor Volume (mm3) (d 1) ([2]; d1): 127.17 ± 35.82 mm3
- Body Weight (g) (d30) ([2]; d30): 19.73 ± 1.22 g
- Tumor Volume (mm3) (d30) ([2]; d30): 724.89 ± 53.90 mm3
